Source: US6911477B2, “Muscarinic receptor agonists” (Pfizer Inc., priority 1996, dated 2005)
Counter-ions that a name gives are not always drawn.

Assays:
human m4 receptor = molecular target: T1, human m4 receptor (Homo sapiens, UniProt P08173); assay: inhibition of forskolin-stimulated cAMP accumulation, m4 receptor; type: cell-based; details: standard agonist, typical value, 5 μM forskolin
T1 construct: host or cells: CHO-K1
T1 sequence (P08173 1-479): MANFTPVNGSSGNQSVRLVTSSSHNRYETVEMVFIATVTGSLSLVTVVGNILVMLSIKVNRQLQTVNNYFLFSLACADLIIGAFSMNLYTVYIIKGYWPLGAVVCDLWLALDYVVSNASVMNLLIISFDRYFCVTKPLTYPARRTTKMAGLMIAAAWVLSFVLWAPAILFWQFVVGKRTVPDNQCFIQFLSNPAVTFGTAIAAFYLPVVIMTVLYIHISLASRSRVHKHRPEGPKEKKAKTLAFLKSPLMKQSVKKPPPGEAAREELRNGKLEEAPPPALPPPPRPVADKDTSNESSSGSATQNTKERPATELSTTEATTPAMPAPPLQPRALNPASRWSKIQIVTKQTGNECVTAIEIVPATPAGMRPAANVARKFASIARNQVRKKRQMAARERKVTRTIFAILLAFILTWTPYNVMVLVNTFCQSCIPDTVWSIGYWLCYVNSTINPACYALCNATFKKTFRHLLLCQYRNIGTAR
Excerpt: (§1) Activity of the compounds of formula I for muscarinic receptors can be determined according to the following protocol. Chinese hamster ovary cells (CHO-K1) stably transformed to express human m1-m5 receptors can be obtained from Dr. Tom Bonner (Laboratory of Cell Biology, National Institute of Mental Health, Building 36, Rm 3A-17, National Institute of Health, Bethesda, Md. 20892). Cells are maintained in Dulbecco's Modified Eagle Medium containing 10% fetal calf serum and harvested at confluence by brief incubation in Ca^++/Mg^++-free phosphate-buffered saline containing 4 mM EDTA.
(§2) Functional responses at m2 and m4 receptors can be determined by measuring inhibition of forskolin-stimulated cAMP accumulation. Harvested cells are preincubated (15 minutes at 20-22° C.) with 3-isobutyl-1-methyl-xanthine (IBMX; 0.2 mM) and then incubated (10 minutes at 20-22° C.) in a HEPES-buffered Krebs solution with test compounds in the presence of 5 μM forskolin. The reaction is stopped by the addition of 10 N acetic acid and the cAMP content of dried supernatants is determined using a scintillation proximity assay (Amersham).

human m2 receptor = molecular target: T2, human m2 receptor (Homo sapiens, UniProt P08172); assay: inhibition of forskolin-stimulated cAMP accumulation, m2 receptor; type: cell-based; details: standard agonist, typical value, 5 μM forskolin
T2 sequence (P08172 1-466): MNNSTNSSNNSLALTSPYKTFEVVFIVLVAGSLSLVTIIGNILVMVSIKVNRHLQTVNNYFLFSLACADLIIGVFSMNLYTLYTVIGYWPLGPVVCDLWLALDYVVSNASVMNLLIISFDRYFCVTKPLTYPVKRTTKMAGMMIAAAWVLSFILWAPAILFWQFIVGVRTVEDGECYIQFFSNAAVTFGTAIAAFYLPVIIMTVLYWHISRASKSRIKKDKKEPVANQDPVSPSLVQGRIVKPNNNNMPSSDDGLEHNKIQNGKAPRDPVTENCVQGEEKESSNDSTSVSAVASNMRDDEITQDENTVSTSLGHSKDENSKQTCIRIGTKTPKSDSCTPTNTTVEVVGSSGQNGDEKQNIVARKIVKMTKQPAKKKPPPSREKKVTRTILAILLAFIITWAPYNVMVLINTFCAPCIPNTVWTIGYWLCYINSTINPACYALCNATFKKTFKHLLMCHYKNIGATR
Excerpt: as §1, §2

melting point | Structure (SMILES) | further results
– | C[N+](C)(C)CCOC(N)=O [Carbachol] | inhibition of the forskolin-stimulated cAMP levels (human m4 receptor): 60-80%; inhibition of the forskolin-stimulated cAMP levels (human m2 receptor): 60-80%
172 to 174 °C | CC1CCCC(C)N1C(=Nc1ccc(F)cc1)NC(=Nc1ccc(F)cc1)c1c(F)cccc1F (stereo not drawn) (as salt: nitrate) [Example 52, N-[(2,6-dimethyl-piperidin-1-yl)-(4-fluoro-phenylimino)-methyl]-2,6-difluoro-N′-(4-fluoro-phenyl)-benzamidine] | –
234 to 235 °C | Cc1ccccc1C(=NC(=Nc1ccccc1)N1CCC(=O)CC1)Nc1ccc(F)cc1 (as salt: hydrochloride) [Example 8, N-(4-Fluoro-phenyl)-2-methyl-N′-[(4-oxo-piperidin-1-yl)-phenylimino-methyl]-benzamidine] | –
192 to 195 °C (dec.) | CC1CCN(C(=Nc2ccccc2)NC(=Nc2ccccc2)c2ccccc2)CC1 (as salt: hydroiodid) [Example 21, N-[(4-methyl-piperidin-1-yl)-phenylimino-methyl]-N′-phenyl-benzamidine] | –
228 to 230 °C (dec.) | Cc1ccccc1C(=NC(=Nc1ccccc1)N1CCC(O)CC1)Nc1ccc(F)cc1 (as salt: hydrochloride) [Example 26, N-(4-fluoro-phenyl)-N′-[(4-hydroxy-piperidin-1-yl)-phenylimino-methyl]-2-methyl-benzamidine] | –
219 to 220 °C | Cc1cccc(C)c1C(=Nc1ccc(F)cc1)NC(=NC1CC1)N1CCCCC1C (stereo not drawn) (as salt: hydrochloride) [Example 103, N-[cyclopropylimino-(2-methyl-piperidin-1-yl)-methyl]-N′-(4-fluoro-phenyl)-2,6-dimethyl-benzamidine] | –
228 to 230 °C (dec.) | COc1ccc(N=C(NC(=Nc2ccccc2)N2CCCCCC2)c2c(C)cccc2C)cc1 (as salt: hydrochloride) [Example 68, N-(azepan-1-yl-phenylimino-methyl)-N′-(4-methoxy-phenyl)-2,6-dimethyl-benzamidine] | –
259 to 260 °C (dec.) | Fc1ccc(NC(=NC(=Nc2ccccc2)N2CCCC2)c2ccccc2)cc1 (as salt: hydrochloride) [Example 2, N-(4-Fluoro-phenyl)-N′-(phenylimino-pyrrolidin-1-yl-methyl)-benzamidine] | –
229 to 231 °C (dec.) | Cc1cccc(C)c1C(=Nc1ccc(F)cc1)NC(=NC1CC1)N1CCCCO1 (as salt: hydrochloride) [Example 104, N-(cyclopropylimino-[1,2]oxazinan-2-yl-methyl)-N′-(4-fluoro-phenyl)-2,6-dimethyl-benzamidine] | –
215 to 217 °C | Cc1cccc(C)c1C(=NC(=Nc1ccccc1)N1CCC(=O)CC1C)Nc1ccc(F)cc1 (stereo not drawn) (as salt: hydrochloride) [Example 65, N-(4-fluoro-phenyl)-2,6-dimethyl-N′-[(2-methyl-4-oxo-piperidin-1-yl)-phenylimino-methyl]-benzamidine] | –
209 to 210 °C (dec.) | Cc1ccccc1C(=NC(=Nc1ccncc1)N1CCCCC1C)Nc1ccc(F)cc1 (stereo not drawn) (as salt: nitrate) [Example 40, N-(4-fluoro-phenyl)-2-methyl-N′-[(2-methyl-piperidin-1-yl)-(pyridin-4-ylimino)-methyl]-benzamidine] | –
228 to 229 °C | c1ccc(N=C(NC(=Nc2ccccc2)N2CCCCCC2)c2ccccc2)cc1 (as salt: hydroiodid) [Example 17, N-(azepan-1-yl-phenylimino-methyl)-N′-phenyl-benzamidine] | –
243 to 245 °C | Cc1cccc(C)c1C(=Nc1ccc(F)cc1)NC(=Nc1ccccc1)N1CCCCCC1 (as salt: hydrochloride) [Example 53, N-(azepan-1-yl-phenylimino-methyl)-N′-(4-fluoro-phenyl)-2,6-dimethyl-benzamidine] | –
163 to 166 °C (dec.) | Cc1cccc(C)c1C(=NC(=Nc1ccccc1)N1CCC(O)CC1C)Nc1ccc(F)cc1 (stereo not drawn) (as salt: hydrochloride) [Example 72, N-(4-fluoro-phenyl)-N′-[(4-hydroxy-2-methyl-piperidin-1-yl)-phenylimino-methyl]-2,6-dimethyl-benzamidine] | –
208 to 210 °C (dec.) | Cc1cccc(C)c1C(=NC(=NC(C)C)N1CCCCC1C)Nc1ccc(F)cc1 (stereo not drawn) (as salt: hydrochloride) [Example 99, N-(4-fluoro-phenyl)-N′-[isopropylimino-(2-methyl-piperidin-1-yl)-methyl]-2,6-dimethyl-benzamidine] | –
163 to 165 °C (dec.) | CC1CCCCN1C(N=C(Nc1ccc(F)cc1)c1c(F)cccc1F)=Nc1ccccc1 (stereo not drawn) (as salt: nitrate) [Example 44, 2,6-difluoro-N-(4-fluoro-phenyl)-N′-[(2-methyl-piperidin-1-yl)-phenylimino-methyl]-benzamidine] | –
> 143 °C | Cc1ccccc1C(=NC(=Nc1ccccc1)N1CCC(=O)CC1C)Nc1ccc(F)cc1 (stereo not drawn) (as salt: hydrochloride) [Example 69, N-(4-fluoro-phenyl)-2-methyl-N′-[(2-methyl-4-oxo-piperidin-1-yl)-phenylimino-methyl]-benzamidine] | –
228 to 230 °C | Clc1ccccc1C(=NC(=Nc1ccccc1)N1CCCC1)Nc1ccccc1 (as salt: hydrochloride) [Example 30, 2-chloro-N-phenyl-N′-(phenylimino-pyrrolidin-1-yl-methyl)-benzamidine] | –
189 to 192 °C | OC1CCCN(C(=Nc2ccccc2)NC(=Nc2ccccc2)c2ccccc2)C1 (stereo not drawn) (as salt: nitrate) [Example 38, N-[(3-hydroxy-piperidin-1-yl)-phenylimino-methyl]-N′-phenyl-benzamidine] | –
242 to 243 °C | Fc1ccc(N=C(NC(=Nc2ccccc2)c2ccccc2)N2CCCC2)cc1 (as salt: hydrochloride) [Example 25, N-[(4-fluoro-phenylimino)-pyrrolidin-1-yl-methyl]-N′-phenyl-benzamidine] | –
219 to 221 °C | Cc1ccccc1C(=Nc1ccc(F)cc1)NC(=Nc1ccccc1)C12CC3CC(CC(C3)C1)C2 (as salt: hydrochloride) [Example 47, N-(adamantan-1-yl-phenylimino-methyl)-N′-(4-fluoro-phenyl)-2-methyl-benzamidine] | –
187 to 190 °C | c1ccc(N=C(NC(=Nc2ccccc2)N2CCCCO2)c2ccccc2)cc1 (as salt: nitrate) [Example 4, N-([1,2]Oxazinan-2-yl-phenylimino-methyl)-N′-phenyl-benzamidine] | –
184 to 186 °C | C(=C(Nc1ccccc1)c1ccccc1)C(=Nc1ccccc1)N1CCCC1 (as salt: nitrate) [Example 87, (3-phenylimino-3-pyrrolidin-1-yl-1-phenyl-propenyl)-phenylamine] | –
168 to 170 °C (dec.) | CCC(C)N=C(NC(=Nc1ccc(F)cc1)c1c(C)cccc1C)N1CCCCC1C (stereo not drawn) (as salt: hydrochloride) [Example 98, N-[sec-butylimino-(2-methyl-piperidin-1-yl)-methyl]-N′-(4-fluoro-phenyl)-2,6-dimethyl-benzamidine] | –
216 to 218 °C | Fc1ccc(N=C(NC(=Nc2ccc(F)cc2)N2CCCCCC2)c2c(F)cccc2F)cc1 (as salt: hydrochloride) [Example 57, N-[azepan-1-yl-(4-fluoro-phenylimino)-methyl]-2,6-difluoro-N′-(4-fluoro-phenyl)-benzamidine] | –
214 to 215 °C | COc1ccc(NC(=NC(=Nc2ccccc2)N2CCCCO2)c2c(C)cccc2C)cc1 (as salt: hydrochloride) [Example 67, N-(4-methoxy-phenyl)-2,6-dimethyl-N′-([1,2]oxazinan-2-yl-phenylimino-methyl)-benzamidine] | –
